In patent US6159940A, “Method for modulating hemopoiesis” (Immunotech Developments Inc., priority 1999, dated 2000):

Legend:
nucleated blood cells = experiment: Karyocyte and lymphocyte counts in blood of irradiated mice (4 Gy), scheme 2; type: in vivo
Method: Irradiated mice (4 Gy) received intramuscular injections of the peptide in the dose of 10 μg/kg according to 2 schemes.
b) According to scheme 2, the peptide injections were made starting from the 3rd day after the irradiation, at the same time of maximum depletion of the pool of mature nucleated cells and the bone marrow. The groups of mice were formed in the same way as in the previous scheme. […] Tables 9 and 10 present the data on karyocyte and lymphocyte counts in blood (per 1 mm^3) of mice treated according to scheme 2.

Thymoma EL-4 cells = Thymoma EL-4 cells incubated with peptide and oxyurea, transplanted to mice: tumor growth and survival; type: in vivo, C57B1 mice
Method: The Thymoma EL-4 cells were extracted from the abdomen cavity of C57B1 mice at the 7th day after transplantation. The suspension was washed by centrifugation in the medium RPMI. Then the cells were resuspended in the growth medium (RPMI+10% of embryo serum+0.1% penicillin/streptomycin) and were split in culture flasks 5 ml each ([…] per flask). 2 mg of the preparation were added (20 μl) to each probe. After 18 hours of incubation (37 degrees Celsius CO2), OU was added to the half of probes (1 mg per 5 ml). Incubation was done for 1 more hour in the same conditions and then cells were washed out by centrifugation in the medium RPMI. The precipitated cells were resuspended in calculation 1 ml per 0.2 ml of RPMI medium and then transplanted to the mice C57B1 under the back skin.
The taking of the measurements of the size of the tumor was started after the knot became visible. The tumor was measured every day until it was impossible to measure. The survival ability of the mice was examined during 60 days after transplantation. Mice that survived after this period were considered to be cured. Each experimental group consisted of 6 animals.

[1] = Acute toxicity in guinea pigs; type: in vivo; conditions: 20 guinea pigs
Method: To establish the safety of use of the peptides, toxicity tests were performed. Toxicity tests where performed in accordance Pharmacological Committee Russian Federation (RF) "guidelines for the pre-clinical study of general toxic activity of new pharmacological compounds". M., 1985.
Acute toxicity was studied in 20 guinea pigs and 6 dogs. […] The drug has a wide therapeutic range.

Solubility = type: physicochemical
Text: The peptide prepared using this process is a yellowish grey or white powder, soluble in water, substantially insoluble in alcohol and substantially insoluble in chloroform. It has a UV spectrum in the range of 250-300 nm with a maximum at 280±2 nm.

[2] = 60 days after transplantation of treated EL-4 cells

## H-Ile-Glu-Trp-OH
Nucleated blood cells; scheme 2, 1 Time, Day 7
  Karyocyte Count in Blood: 1.64 ± 0.2 × 10^3
  Lymphocyte in Blood (Absolute): 232
  Lymphocyte in Blood, %: 45.1 ± 3.9%
Nucleated blood cells; scheme 2, 1 Time, Day 11
  Karyocyte Count in Blood: 1.88 ± 0.3 × 10^3
  Lymphocyte in Blood (Absolute): 1365
  Lymphocyte in Blood, %: 49.2 ± 3.8%
Nucleated blood cells; scheme 2, 1 Time, Day 14
  Karyocyte Count in Blood: 1.50 ± 0.2 × 10^3
  Lymphocyte in Blood (Absolute): 1118
  Lymphocyte in Blood, %: 43.3 ± 3.2%
Nucleated blood cells; scheme 2, 1 Time, Day 18
  Karyocyte Count in Blood: 2.62 ± 0.2 × 10^3
  Lymphocyte in Blood (Absolute): 2412
  Lymphocyte in Blood, %: 30.6 ± 2.9%
Nucleated blood cells; scheme 2, 1 Time, Day 21
  Karyocyte Count in Blood: 1.63 ± 0.2 × 10^3
  Lymphocyte in Blood (Absolute): 743
  Lymphocyte in Blood, %: 45.6 ± 3.9%
Nucleated blood cells; scheme 2, 2 Times, Day 7
  Karyocyte Count in Blood: 1.33 ± 0.2 × 10^3
  Lymphocyte in Blood (Absolute): 701
  Lymphocyte in Blood, %: 52.7 ± 2.9%
Nucleated blood cells; scheme 2, 2 Times, Day 11
  Karyocyte Count in Blood: 2.03 ± 0.3 × 10^3
  Lymphocyte in Blood (Absolute): 915
  Lymphocyte in Blood, %: 45.1 ± 5.4%
Nucleated blood cells; scheme 2, 2 Times, Day 14
  Karyocyte Count in Blood: 1.60 ± 0.2 × 10^3
  Lymphocyte in Blood (Absolute): 619
  Lymphocyte in Blood, %: 38.8 ± 2.2%
Nucleated blood cells; scheme 2, 2 Times, Day 18
  Karyocyte Count in Blood: 1.67 ± 0.1 × 10^3
  Lymphocyte in Blood (Absolute): 703
  Lymphocyte in Blood, %: 42.1 ± 1.4%
Nucleated blood cells; scheme 2, 2 Times, Day 21
  Karyocyte Count in Blood: 2.70 ± 0.2 × 10^3
  Lymphocyte in Blood (Absolute): 1220
  Lymphocyte in Blood, %: 45.2 ± 2.3%
Nucleated blood cells; scheme 2, 3 Times, Day 7
  Karyocyte Count in Blood: 2.22 ± 0.3 × 10^3
  Lymphocyte in Blood (Absolute): 968
  Lymphocyte in Blood, %: 43.6 ± 2.1%
Nucleated blood cells; scheme 2, 3 Times, Day 11
  Karyocyte Count in Blood: 1.94 ± 0.2 × 10^3
  Lymphocyte in Blood (Absolute): 892
  Lymphocyte in Blood, %: 46.3 ± 5.4%
Nucleated blood cells; scheme 2, 3 Times, Day 14
  Karyocyte Count in Blood: 1.50 ± 0.2 × 10^3
  Lymphocyte in Blood (Absolute): 744
  Lymphocyte in Blood, %: 47.7 ± 6.1%
Nucleated blood cells; scheme 2, 3 Times, Day 18
  Karyocyte Count in Blood: 2.07 ± 0.2 × 10^3
  Lymphocyte in Blood (Absolute): 7353
  Lymphocyte in Blood, %: 35.5 ± 1.4%
Nucleated blood cells; scheme 2, 3 Times, Day 21
  Karyocyte Count in Blood: 2.45 ± 0.4 × 10^3
  Lymphocyte in Blood (Absolute): 1289
  Lymphocyte in Blood, %: 52.5 ± 3.2%
Nucleated blood cells; scheme 2, 4 Times, Day 7
  Karyocyte Count in Blood: 2.71 ± 0.4 × 10^3
  Lymphocyte in Blood (Absolute): 1231
  Lymphocyte in Blood, %: 45.6 ± 2.5%
Nucleated blood cells; scheme 2, 4 Times, Day 11
  Karyocyte Count in Blood: 3.03 ± 0.5 × 10^3
  Lymphocyte in Blood (Absolute): 1406
  Lymphocyte in Blood, %: 42.6 ± 3.6%
Nucleated blood cells; scheme 2, 4 Times, Day 14
  Karyocyte Count in Blood: 1.17 ± 0.1 × 10^3
  Lymphocyte in Blood (Absolute): 515
  Lymphocyte in Blood, %: 44.0 ± 3.1%
Nucleated blood cells; scheme 2, 4 Times, Day 18
  Karyocyte Count in Blood: 2.48 ± 0.1 × 10^3
  Lymphocyte in Blood (Absolute): 1116
  Lymphocyte in Blood, %: 45.1 ± 1.8%
Nucleated blood cells; scheme 2, 4 Times, Day 21
  Karyocyte Count in Blood: 1.66 ± 0.2 × 10^3
  Lymphocyte in Blood (Absolute): 789
  Lymphocyte in Blood, %: 47.5 ± 5.3%
Thymoma EL-4 cells; [2]
  % of Survival: 16.6%
  Number of Survived Mice From 6: 1/6
Thymoma EL-4 cells; mice with Thymoma EL-4
  extension of lifetime in combination with cytostatics: 15 days
  increase in lifetime versus control: 4 days
Thymoma EL-4 cells; thymoma cells incubated with H-Ile-Glu-Trp-OH, then OU
  tumor growth: depression of the tumor growth on the 12th day is most definite
[1]
  acute toxicity: No toxic effects were observed
Solubility; alcohol
  Solubility: moderately soluble
Solubility; chloroform
  Solubility: insoluble
Solubility; water
  Solubility: readily soluble
